The numbers were not newly measured in patent US12396967B2 (Pulmonem Inc., priority 2020, dated 2025), which cites them from elsewhere.

The data set relates to human bronchial epithelial cells stimulated with lipopolysaccharide.

`Nc1ccc(S(=O)(=O)c2ccc(N)cc2)cc1` [Dapsone, 4,4′-diamino-diphenyl sulfone]: the IL-8 secretion result is “inhibits IL-8 secretion”.
